Experimental data as given in the NIST ThermoML archive (doi:10.1021/acs.jced.5b00820).

Assay: xn = mol fraction of the nth substance listed
Conditions: 102.2 kPa, Liquid, Vibrating tube method

C[Si](C)(O[Si](C)(C)c1ccccc1)c1ccccc1 [1,3-diphenyltetramethyldisiloxane] + C=C[Si](C)(C)O[Si](C)(C)C=C
mass density [kg/m3]
Conditions	308.15 K	313.15 K	318.15 K	323.15 K	328.15 K
x1 = 0.0502	809.57	804.7	799.79	794.89	789.94
x1 = 0.1	820.63	815.84	811.01	806.21	801.35
x1 = 0.1487	831.07	826.38	821.62	816.9	812.12
x1 = 0.2002	841.7	837.11	832.41	827.77	823.05
x1 = 0.2498	851.61	847.08	842.45	837.87	833.22
x1 = 0.3	861.28	856.78	852.19	847.66	843.06
x1 = 0.3503	870.64	866.2	861.68	857.2	852.68
x1 = 0.3994	879.46	875.05	870.55	866.12	861.63
x1 = 0.4502	888.32	883.96	879.52	875.17	870.72
x1 = 0.5001	896.73	892.42	888.02	883.7	879.29
x1 = 0.5498	904.84	900.61	896.23	891.95	887.57
x1 = 0.6002	912.8	908.56	904.21	899.93	895.59
x1 = 0.6502	920.47	916.26	911.95	907.71	903.38
x1 = 0.7004	927.9	923.73	919.47	915.27	911
x1 = 0.7504	935.1	930.94	926.72	922.51	918.26
x1 = 0.8003	942.07	937.9	933.7	929.52	925.3
x1 = 0.8498	948.8	944.66	940.48	936.33	932.14
x1 = 0.8986	955.23	951.09	946.94	942.83	938.64
x1 = 0.9502	961.82	957.69	953.57	949.47	945.33
x1 = 1	967.99	963.87	959.76	955.68	951.57
